Results from US20140349948A1, “Treatment of Chronic Constipation” (Forest Laboratories Holdings Limited, priority 2009, published 2014).
Marks after values point to notes of the source that are not given here. Residues, ends and D or L forms follow the SMILES beside them.

How the values were obtained:
[1] = tested on: patients with chronic constipation; assay: Trials 1 and 2 pooled; assay type: in vivo, human; details: for Stool Consistency, Week 1 Mean Change from Baseline: 7-point scale (BSFS)
Experimental: (§1) Linaclotide Capsules from Example 4 were administered in multicenter, randomized, double-blind, placebo-controlled trials.
(§2) Trial 1 was conducted in 630 patients meeting modified Rome II criteria for chronic constipation. The trial included a two-week pretreatment baseline period and a 12-week treatment period. A diagram of the study design for Trial 2 is given in FIG. 1, which is substantially similar to Trial 1 except for the addition of a Randomized Withdrawal period in Trial 2 as described below.
Trial 2 was conducted in 642 patients and was identical to Trial 1 except that Trial 2 also included a four-week Randomized Withdrawal Period, defined below. During the two-week pretreatment (baseline) period, 68 percent of patients in Trial 2 had no CSBMs.

[2] = tested on: patients meeting modified Rome II criteria for chronic constipation; assay: Chronic Constipation Trial 1, 12-week treatment period; assay type: in vivo, human; details: for Straining, Week 1 Mean Change from Baseline / Abdominal discomfort, Week 1 Mean Change from Baseline / Bloating, Week 1 Mean Change from Baseline / Constipation severity, Week 1 Mean Change from Baseline: 5-point scale: 1 = none; for Straining, Week 1 Mean Change from Baseline: 5 = an extreme amount; for Abdominal discomfort, Week 1 Mean Change from Baseline / Bloating, Week 1 Mean Change from Baseline / Constipation severity, Week 1 Mean Change from Baseline: 5 = very severe; for Stool Consistency, Week 1 Mean Change from Baseline: 7-point scale (BSFS)
Experimental: as §1, §2
The Pretreatment Period is defined as the 14 to 21 calendar days immediately before starting the trial during which where patients provided information related to their daily bowel habits, daily assessment of the symptom severity, constipation severity, and use of other medicines, laxatives, suppositories, and/or enemas. Patients who satisfy the necessary criteria were entered into the Treatment Period. During the two-week pretreatment period, 72 percent of patients in Trial 1 had no CSBMs. A CSBM is an bowel movement that occurs in the absence of laxative, enema, or suppository usage within the preceding 24 hours that is accompanied by the patient self-reporting a feeling of complete emptying of the bowel.
The Treatment Period began with randomization and lasted for 12 weeks. Patients were randomized to treatment with 133 μg linaclotide, 266 μg linaclotide, or placebo (1:1:1), taken once daily in the morning. Patients continued to provide their daily assessments such as their daily bowel habit assessments and daily patient symptom severity assessments.

CC = assay: Phase 2b studies for CC, four-week treatment; assay type: in vivo; details: throughout the four-week treatment period
Source text: Linaclotide is a peptide GC-C agonist that is orally administered and currently in clinical trials for treatment of irritable bowel syndrome with constipation (IBS-c) and CC.

[3] = 266 μg, Pooled (n = 418), 5-point scale: 1 = none, 5 = very severe
[4] = Trial 1, 133 μg (p≦0.0001) and 266 μg (p≦0.0001)
[5] = Trial 1, 133 μg (p≦0.001) and 266 μg (p≦0.0001)

SMILES: C[C@@H]1NC(=O)[C@@H]2CCCN2C(=O)[C@H](CC(N)=O)NC(=O)[C@@H]2CSSC[C@H](N)C(=O)N[C@H]3CSSC[C@H](NC1=O)C(=O)N[C@@H]([C@@H](C)O)C(=O)NCC(=O)N[C@H](C(=O)N[C@@H](Cc1ccc(O)cc1)C(=O)O)CSSC[C@H](NC(=O)[C@H](Cc1ccc(O)cc1)NC(=O)[C@H](CCC(=O)O)NC3=O)C(=O)N2 [Linaclotide, Cys1 Cys2 Glu3 Tyr4 Cys5 Cys6 Asn7 Pro8 Ala9 Cys10 Thr11 Gly12 Cys13 Tyr14] (HELM PEPTIDE1{C.C.E.Y.C.C.N.P.A.C.T.G.C.Y}$PEPTIDE1,PEPTIDE1,1:R3-6:R3|PEPTIDE1,PEPTIDE1,2:R3-10:R3|PEPTIDE1,PEPTIDE1,5:R3-13:R3$$$V2.0)
- Stool Consistency, Week 1 Mean Change from Baseline ([1]; 133 μg, Pooled (n = 430)): 1.78***
- CSBM rate, Week 1 Mean Change from Baseline ([1]; 266 μg, Pooled (n = 418)): 2.42**
- SBM rate, Week 1 Mean Change from Baseline ([1]; 266 μg, Pooled (n = 418)): 4.01***
- Straining, Week 1 Mean Change from Baseline ([1]; 266 μg, Pooled (n = 418), 5-point scale: 1 = none, 5 = an extreme amount): −1.14***
- Abdominal discomfort, Week 1 Mean Change from Baseline [1, 3]: −0.26***
- Bloating, Week 1 Mean Change from Baseline [1, 3]: −0.31***
- Constipation severity, Week 1 Mean Change from Baseline [1, 3]: −0.85***
- Stool Consistency, Week 1 Mean Change from Baseline ([1]; 266 μg, Pooled (n = 418)): 1.87***
- Overall rates of discontinuation due to adverse events ([1]; both trial 1 and 2): 7.4%
- most common adverse events ([1]; both trial 1 and 2, linaclotide-treated patients): diarrhea, flatulence, and abdominal pain
- CSBM rate, Week 1 Mean Change from Baseline ([2]; 133 μg, Trial 1 (n = 213)): 1.94***
- SBM rate, Week 1 Mean Change from Baseline ([2]; 133 μg, Trial 1 (n = 213)): 4.09***
- Straining, Week 1 Mean Change from Baseline ([2]; 133 μg, Trial 1 (n = 213)): −1.04***
- Abdominal discomfort, Week 1 Mean Change from Baseline ([2]; 133 μg, Trial 1 (n = 213)): −0.27**
- Bloating, Week 1 Mean Change from Baseline ([2]; 133 μg, Trial 1 (n = 213)): −0.31*
- Constipation severity, Week 1 Mean Change from Baseline ([2]; 133 μg, Trial 1 (n = 213)): −0.78***
- Stool Consistency, Week 1 Mean Change from Baseline ([2]; 133 μg, Trial 1 (n = 213)): 1.79***
- CSBM rate, Week 1 Mean Change from Baseline ([2]; 266 μg, Trial 1 (n = 202)): 2.63***
- SBM rate, Week 1 Mean Change from Baseline ([2]; 266 μg, Trial 1 (n = 202)): 4.09***
- Straining, Week 1 Mean Change from Baseline ([2]; 266 μg, Trial 1 (n = 202)): −1.10***
- Abdominal discomfort, Week 1 Mean Change from Baseline ([2]; 266 μg, Trial 1 (n = 202)): −0.28***
- Bloating, Week 1 Mean Change from Baseline ([2]; 266 μg, Trial 1 (n = 202)): −0.36***
- Constipation severity, Week 1 Mean Change from Baseline ([2]; 266 μg, Trial 1 (n = 202)): −0.81***
- Stool Consistency, Week 1 Mean Change from Baseline ([2]; 266 μg, Trial 1 (n = 202)): 1.96***
- 12-week CSBM overall responder rate ([2]; Trial 1, 133 μg): 16.0%
- increase in average weekly CSBMs from baseline ([2]; Trial 1, 133 μg): 2.0
- increase in average weekly SBMs from baseline ([2]; Trial 1, 133 μg): 3.4
- numerical increase of 12-week CSBM overall responder rate as compared to placebo ([2]; Trial 1, 133 μg): 2.6 fold
- patients reporting at least one CSBM within 24 hours of treatment ([2]; Trial 1, 133 μg): 28.2%
- patients reporting at least one SBM within 24 hours of treatment ([2]; Trial 1, 133 μg): 64.3%
- patients with increase of ≧1 from baseline in weekly CSBMs in at least nine out of 12 weeks ([2]; Trial 1, 133 μg): 31.0%
- patients with increase of ≧1 from baseline in weekly CSBMs in at least six out of 12 weeks ([2]; Trial 1, 133 μg): 47.4%
- patients with ≧3 weekly CSBMs in at least nine out of 12 weeks ([2]; Trial 1, 133 μg): 16.0%
- 12-week CSBM overall responder rate ([2]; Trial 1, 266 μg): 21.3%
- increase in average weekly CSBMs from baseline ([2]; Trial 1, 266 μg): 2.7
- increase in average weekly SBMs from baseline ([2]; Trial 1, 266 μg): 3.7
- numerical increase of 12-week CSBM overall responder rate as compared to placebo ([2]; Trial 1, 266 μg): 3.5 fold
- patients reporting at least one CSBM within 24 hours of treatment ([2]; Trial 1, 266 μg): 29.7%
- patients reporting at least one SBM within 24 hours of treatment ([2]; Trial 1, 266 μg): 60.4%
- patients with increase of ≧1 from baseline in weekly CSBMs in at least nine out of 12 weeks ([2]; Trial 1, 266 μg): 40.1%
- patients with increase of ≧1 from baseline in weekly CSBMs in at least six out of 12 weeks ([2]; Trial 1, 266 μg): 51.0%
- patients with ≧3 weekly CSBMs in at least nine out of 12 weeks ([2]; Trial 1, 266 μg): 21.8%
- PAC-QOL overall assessments, 12 week overall mean change versus placebo [2, 4]: statistically significant improvements
- PAC-QOL subscale score Physical Discomfort versus placebo [2, 4]: statistically significant improvements
- PAC-QOL subscale score Satisfaction versus placebo [2, 4]: statistically significant improvements
- PAC-QOL subscale score Worries/Concerns versus placebo [2, 4]: statistically significant improvements
- severity of straining score, 12 week overall mean change versus placebo [2, 4]: statistically significant improvements
- stool consistency score, 12 week overall mean change versus placebo [2, 4]: statistically significant improvements
- abdominal discomfort score, 12 week overall mean change versus placebo [2, 5]: statistically significant improvements
- bloating score, 12 week overall mean change versus placebo [2, 5]: statistically significant improvements
- constipation severity score, 12 week overall mean change versus placebo [2, 5]: statistically significant improvements
- effect on constipation, abdominal discomfort, and bloating (CC): reduced constipation, abdominal discomfort, and bloating
